Laboratory results from PMC7112121 (Bioorganic Chemistry, 2019).
Read-outs that look alike come from different tables or passages of the source.

B1: Urtica dioica agglutinin (protein, UniProt P11218 24-372, looked up)
Lectin/endochitinase 1: QRCGSQGGGGTCPALWCCSIWGWCGDSEPYCGRTCENKCWSGERSDHRCGAAVGNPPCGQDRCCSVHGWCGGGNDYCSGSKCQYRCSSSVRGPRVALSGNSTANSIGNVVVTEPLFDQMFSHRKDCPSQGFYSYHSFLVAAESFPAFGTIGDVATRKREVAAFLAHISQATSGERSDVENPHAWGLCHINTTTVTENDFCTSSDWPCAAGKKYSPRGPIQLTHNFNYGLAGQAIGEDLIQNPDLVEKDPIISFKTALWFWMSQHDNKPSCHDIVLNANSAANRIPNKGVIGNIISRAFGHDDFAVRSSSIGFYKRYCDMLGVSYGHDLKYWFDNTPSSEFQRIQMRVAA

Experiments:
Sindbis virus = test: Antiviral CPE reduction assay, Sindbis virus in VERO cells; assay type: cell-based; settings: for EC50: Sindbis virus, Vero, read-out: Antiviral EC50 Sindbis virus; for Antiviral EC50 Sindbis virus: VERO cells, CPE by microscopy, mean of two experiments
[1] = test system: Mycobacterium tuberculosis H37Rv; settings: for H37Rv Finding Activity: M. tuberculosis H37Rv, MABA in BACTEC 12B medium
Reovirus-1 = test: Antiviral CPE reduction assay, Reovirus-1 in VERO cells; assay type: cell-based; settings: for EC50: Vero, read-out: Antiviral EC50 Reovirus-1; for Antiviral EC50 Reovirus-1: VERO cells, CPE by microscopy, mean of two experiments
HSV-1 = test: Antiviral CPE reduction assay, HSV-1 in HEL cells; assay type: cell-based, Herpes simplex virus-1; settings: for EC50: Human alphaherpesvirus 1, HEL, read-out: Antiviral EC50 HSV-1; for Antiviral EC50 HSV-1: HEL cells, CPE by microscopy, mean of two experiments
Vaccinia virus = test: microbe, parasite or virus in culture; assay type: cell-based; settings: for EC50: Orthopoxvirus vaccinia, HEL, read-out: Antiviral EC50 Vaccinia virus
[2] = test system: human embryonic lung (HEL) fibroblast cells; settings: minimum cytotoxic concentration
Punto Toro virus = test: Antiviral CPE reduction assay, Punto Toro virus in VERO cells; assay type: cell-based, Punta toro virus; settings: for EC50: Punta Toro virus, Vero, read-out: Antiviral EC50 Punto Toro virus; for Antiviral EC50 Punto Toro virus: VERO cells, CPE by microscopy, mean of two experiments
Feline coronavirus = test: microbe, parasite or virus in culture; settings: Alphacoronavirus 1, CRFK, read-out: Antiviral EC50 Feline coronavirus
VERO cells = settings: minimum cytotoxic concentration
Feline herpesvirus = test: Antiviral CPE reduction assay, Feline herpesvirus in CRFK cells; assay type: cell-based; settings: Felid alphaherpesvirus 1, CRFK, read-out: Antiviral EC50 Feline herpesvirus
Parainfluenza-3 virus = test: Antiviral CPE reduction assay, Parainfluenza-3 virus in VERO cells; assay type: cell-based; settings: for EC50: Vero, read-out: Antiviral EC50 Parainfluenza-3 virus; for Antiviral EC50 Parainfluenza-3 virus: VERO cells, CPE by microscopy, mean of two experiments
Coxsackie B4 virus = test: Antiviral CPE reduction assay, Coxsackie B4 virus in VERO cells; assay type: cell-based; settings: for EC50: Enterovirus B, B4, Vero, read-out: Antiviral EC50 Coxsackie B4 virus; for Antiviral EC50 Coxsackie B4 virus: CPE by microscopy, mean of two experiments
ACV^r-HSV-1 = test: Antiviral CPE reduction assay, ACVr-HSV-1 in HEL cells; assay type: cell-based; settings: for EC50: Human alphaherpesvirus 1, HEL, read-out: Antiviral EC50 ACV^r-HSV-1; for Antiviral EC50 ACV^r-HSV-1: HEL cells, CPE by microscopy, mean of two experiments
HSV-2 = test: Antiviral CPE reduction assay, HSV-2 in HEL cells; assay type: cell-based, Herpes simplex virus-2; settings: for EC50: Human alphaherpesvirus 2, HEL, read-out: Antiviral EC50 HSV-2; for Antiviral EC50 HSV-2: HEL cells, CPE by microscopy, mean of two experiments
[3] = test system: Vesicular stomatitis virus; assay type: cell-based
CRFK feline kidney cells = settings: MTS cell viability assay
[4] = microscopic inspection of cell morphology

Row | Molecule | EC50 (Sindbis virus) | EC50 (Reovirus-1) | EC50 (HSV-1) | EC50 (Vaccinia virus) | Cytotoxicity MCC [2, 4] | EC50 (Punto Toro virus) | EC50 (Feline coronavirus) | Cytotoxicity MCC (VERO cells; [4]) | EC50 (Feline herpesvirus) | EC50 (Parainfluenza-3 virus) | EC50 (Coxsackie B4 virus) | EC50 (ACV^r-HSV-1) | EC50 (HSV-2) | also measured
1 | O=C(Cc1csc2nc(-c3ccc(Br)cc3)cn12)NN1C(=O)CSC12CCCCC2 [Compound 5b, 2-[6-(4-Bromophenyl)imidazo[2,1-b]thiazole-3-yl]-N-(3-oxo-1-thia-4-azaspiro[4.5]dec-4-yl)acetamide] | > 100 µg/mL | > 100 µg/mL | > 100 µg/mL | > 100 µg/mL | >100 µg/mL | > 100 µg/mL | > 100 µg/mL | >100 µg/mL | > 100 µg/mL | > 100 µg/mL | > 100 µg/mL | > 100 µg/mL | > 100 µg/mL | H37Rv Finding MIC [1]: 1.566 µg/mL; H37Rv Finding Activity [1]: Active
2 | CC1SC2(CCC(c3ccc(O)cc3)CC2)N(NC(=O)Cc2csc3nc(-c4ccc(Br)cc4)cn23)C1=O (centres unmarked) [Compound 6d, 2-[6-(4-Bromophenyl)imidazo[2,1-b]thiazole-3-yl]-N-(2-methyl-8-(4-hydroxyphenyl)-3-oxo-1-thia-4-azaspiro[4.5]dec-4-yl)acetamide] | > 100 µg/mL | > 100 µg/mL | > 100 µg/mL | > 100 µg/mL | ≥20 µg/mL | > 100 µg/mL | > 100 µg/mL | ≥20 µg/mL | > 100 µg/mL | > 100 µg/mL | 10 µg/mL | > 100 µg/mL | > 100 µg/mL | selectivity index (Coxsackie B4 virus; Coxsackie B4 virus, VERO cells): ≥ 2
3 | O=c1[nH]c(=O)n([C@H]2C[C@H](O)[C@@H](CO)O2)cc1/C=C/Br [Brivudine, reference compound] | – | – | – | – | – | – | – | – | – | – | – | – | 50 µM | Cytotoxicity MCC ([2]; reference in µM): >250 µM
4 | Nc1ccn(C[C@@H](CO)OCP(=O)(O)O)c(=O)n1 [Cidofovir, reference compound] | – | – | – | – | – | – | – | – | – | – | – | – | – | Cytotoxicity MCC ([2]; reference in µM): >250 µM
5 | NC(=O)c1ncn([C@@H]2O[C@H](CO)[C@@H](O)[C@H]2O)n1 [Ribavirin, reference compound] | > 250 µM | > 250 µM | – | – | – | 38 µM | – | – | – | 50 µM | > 250 µM | – | – | Cytotoxicity MCC (VERO cells; reference in µM): >250 µM
6 | CC1SC2(CCCC2)N(NC(=O)Cc2csc3nc(-c4ccc(Br)cc4)cn23)C1=O (centres unmarked) [Compound 6a, 2-[6-(4-Bromophenyl)imidazo[2,1-b]thiazole-3-yl]-N-(2-methyl-3-oxo-1-thia-4-azaspiro[4.4]non-4-yl)acetamide] | > 100 µg/mL | > 100 µg/mL | > 100 µg/mL | > 100 µg/mL | ≥20 µg/mL | > 100 µg/mL | > 100 µg/mL | 100 µg/mL | > 100 µg/mL | > 100 µg/mL | > 100 µg/mL | > 100 µg/mL | > 100 µg/mL | –
7 | O=C(Cc1csc2nc(-c3ccc(Br)cc3)cn12)NN=C1CCCCC1 [Compound 4b, 6-(4-Bromophenyl)-N^2-(cyclohexylidene)imidazo[2,1-b]thiazole-3-acetohydrazide] | – | – | – | – | 20 µg/mL | – | – | >100 µg/mL | – | – | – | – | – | Antiviral EC50 Sindbis virus (Sindbis virus): >100 µg/mL; H37Rv Finding MIC [1]: >100 µg/mL; IC50 [1]: > 100 µg/mL; H37Rv Finding Activity [1]: Inactive; Antiviral EC50 Reovirus-1 (Reovirus-1): >100 µg/mL; Antiviral EC50 HSV-1 (HSV-1): >100 µg/mL; Antiviral EC50 Vesicular stomatitis virus [3]: >100 µg/mL; Antiviral EC50 Vaccinia virus (Vaccinia virus): >100 µg/mL; Cytotoxicity CC50 (CRFK feline kidney cells): >100 µg/mL; Antiviral EC50 Punto Toro virus (Punto Toro virus): >100 µg/mL; Antiviral EC50 Parainfluenza-3 virus (Parainfluenza-3 virus): >100 µg/mL; Antiviral EC50 Coxsackie B4 virus (Coxsackie B4 virus; VERO cells): >100 µg/mL; Antiviral EC50 ACV^r-HSV-1 (ACV^r-HSV-1): >100 µg/mL; Antiviral EC50 HSV-2 (HSV-2): >100 µg/mL
8 | Nc1nc2c(ncn2COCCO)c(=O)[nH]1 [Acyclovir, reference compound] | – | – | – | > 250 µM | – | – | – | – | – | – | – | ≥ 112 µM | 0.5 µM | –
9 | O=C(Cc1csc2nc(-c3ccc(Br)cc3)cn12)NN1C(=O)CSC12CCCC2 [Compound 5a, 2-[6-(4-Bromophenyl)imidazo[2,1-b]thiazole-3-yl]-N-(3-oxo-1-thia-4-azaspiro[4.4]non-4-yl)acetamide] | > 100 µg/mL | > 100 µg/mL | > 100 µg/mL | > 100 µg/mL | 100 µg/mL | > 100 µg/mL | > 100 µg/mL | ≥20 µg/mL | > 100 µg/mL | > 100 µg/mL | > 100 µg/mL | > 100 µg/mL | > 100 µg/mL | H37Rv Finding MIC [1]: 8.453 µg/mL; H37Rv Finding Activity [1]: Active
10 | CC1SC2(CCC(c3ccccc3)CC2)N(NC(=O)Cc2csc3nc(-c4ccc(Br)cc4)cn23)C1=O (centres unmarked) [Compound 6c, 2-[6-(4-Bromophenyl)imidazo[2,1-b]thiazole-3-yl]-N-(2-methyl-8-phenyl-3-oxo-1-thia-4-azaspiro[4.5]dec-4-yl)acetamide] | > 100 µg/mL | > 100 µg/mL | > 100 µg/mL | > 100 µg/mL | 20 µg/mL | > 100 µg/mL | > 100 µg/mL | 20 µg/mL | > 100 µg/mL | > 100 µg/mL | > 100 µg/mL | > 100 µg/mL | > 100 µg/mL | –
11 | dextran sulphate MW 5,000 [DS-5,000, reference compound] | – | – | – | – | – | – | – | >100 µg/mL | – | – | – | – | – | Antiviral EC50 Reovirus-1 (Reovirus-1): ≥100 µg/mL; Antiviral EC50 Parainfluenza-3 virus (Parainfluenza-3 virus): >100 µg/mL
12 | CC1SC2(CCCCC2)N(NC(=O)Cc2csc3nc(-c4ccc(Br)cc4)cn23)C1=O (centres unmarked) [Compound 6b, 2-[6-(4-Bromophenyl)imizado[2,1-b]thiazole-3-yl]-N-(2-methyl-3-oxo-1-thia-4-azaspiro[4], [5]dec-4-yl)acetamide] | – | – | – | – | 20 µg/mL | – | – | 100 µg/mL | – | – | – | – | – | Antiviral EC50 Sindbis virus (Sindbis virus): >100 µg/mL; Antiviral EC50 Reovirus-1 (Reovirus-1): >100 µg/mL; Antiviral EC50 HSV-1 (HSV-1): >100 µg/mL; Antiviral EC50 Vesicular stomatitis virus [3]: >100 µg/mL; Antiviral EC50 Vaccinia virus (Vaccinia virus): >100 µg/mL; Cytotoxicity CC50 (CRFK feline kidney cells): 9.2 µg/mL; Antiviral EC50 Punto Toro virus (Punto Toro virus): >100 µg/mL; Antiviral EC50 Parainfluenza-3 virus (Parainfluenza-3 virus): >100 µg/mL; Antiviral EC50 Coxsackie B4 virus (Coxsackie B4 virus; VERO cells): >100 µg/mL; Antiviral EC50 ACV^r-HSV-1 (ACV^r-HSV-1): >100 µg/mL; Antiviral EC50 HSV-2 (HSV-2): >100 µg/mL
13 | Nc1nc(O)c2ncn(COC(CO)CO)c2n1 [Ganciclovir, reference compound] | – | – | 0.025 µM | > 100 µM | – | – | > 100 µM | – | 1.9 µM | – | – | 60 µM | 0.03 µM | Cytotoxicity MCC ([2]; reference in µM): >100 µM
14 | B1 | – | – | – | – | – | – | – | – | – | – | – | – | – | Cytotoxicity CC50 (CRFK feline kidney cells): 29 µg/mL
